This is an account of results in patent US12662530B2, “Anti-ADM-antibodies binding to the free N-terminus for accelerated transition of ADM-Gly to bio-ADM in patients with ADM-Gly/ bio-ADM ratio above a threshold and combination with vitamin C” (SphingoTec GmbH, priority 2020, dated 2026).

Molecules are shown by their SMILES.

One assay deals with native PAM. Description: ADM maturation activity (AMA) of native PAM in Li-Heparin plasma with antibody and varying L-ascorbate. The format is biochemical, human. As to the method:
A serial antibody-dilution with concentrations of 0, 5, 10, 50, 100, 500 and 3000 μg/mL per well, respectively (in 20 μl) were pipetted into 96-well micro-titer plates. Then 160 μl PAM reaction buffer (100 mM Tris-HCl, 6.25 μM CuSO4, 62.5 μM amastatin, 250 μM leupeptin, 36 ng/mL ADM-Gly) with varying L-ascorbate concentrations was added to the wells and incubated for 15 min. Afterwards the reaction was started by addition of 20 μl of Li-Heparin plasma, containing native PAM Immediately after addition of plasma, 100 μl from each well were removed and inactivated by addition of EDTA (20 mM final concentration) to generate a t=0 minutes reaction point. Inactivated and non-inactivated samples were incubated for 40 minutes at 37° C. and the reaction in non-inactivated samples was stopped as described above. For quantification of produced ADM-NH2 the Sphingotest® bio-ADM Kit (Weber et al. 2017) was utilized according to manufacturer's manual. The ADM maturation activity (AMA) was calculated according to equation 1 (DF=dilution factor of sample matrix).

The subject of a further assay is septic patients. The conditions noted are these: intravenous; placebo group 46%; cited from earlier work.

On to `O=C1O[C@H]([C@@H](O)CO)C(O)=C1O` [ascorbate, L-ascorbic acid, reference compound], for which, in the assay on native PAM (ascorbate in the range of 0.4-2 mM, FIG. 15), the “effect on ADM maturation activities” value was “led to increasing ADM maturation activities”. Moreover, the “activity optimum of the amidating reaction (ascorbate concentration)” value in the assay with native PAM (with and without HAM8101) lay within 0.8 to 2 mM. Besides, the mortality – broadly, the percentage killed – at day 28 in the assay on septic patients is recorded as ~30%.
